Converted amounts (≈) assume the structure as drawn.

For data set [1] the following is noted: water at 25° C.; cited from earlier work.
Data set [2] in a line: dissolution (liberation) of terfenadine from capsules, FIG. 4. The format is physicochemical. The following applies: after 120 minutes; dose 60 mg. On the procedure: Another active principle, terfenadine, was formulated with Gelucire® 44/14. The mixture was cast into a capsule in a manner that was similar to that of Example 1 above which used piroxicam.
The dose was 60 mg, for a total of 680 mg of formulation.
The graph of FIG. 4 was therefore obtained, illustrating the liberation L (%) of the active principle as a function of time t in minutes, in which: • the curve C1 (invention) corresponds to a mixture of terfenadine/Gelucire® 44/14/PEG 6000, in which the ratio by weight of Gelucire® 44/14/PEG 6000 is 65/35: • the curve C2 (invention) corresponds to a mixture of terfenadine/Gelucire® 44/14/PEG 6000, in which the ratio by weight of Gelucire® 44/14/PEG 6000 is 60/40; • the curve C3 (control 1) corresponds to a mixture of terfenadine/PEG 6000; • the curve C4 (control 2) corresponds to terfenadine alone.

As for `CC(C)(C)c1ccc(C(O)CCCN2CCC(C(O)(c3ccccc3)c3ccccc3)CC2)cc1` (centres unmarked) [terfenadine], the solubility in water in data set [1] was 250 µg/mL (≈ 530 µM). Further, in data set [2], the “liberation L of terfenadine” value is “below 10%”.

These data come from patent publication US11986528B2, “Use of a mixture of lauroyl macrogolglyceride and polyethylene glycol as an excipient” (GATTEFOSSE SAS, priority 2020, dated 2024).
